Assay results from patent US20020137929A1, “1 - (3-heterocyclylphenyl) isothiourea, -isourea, -guanidine and -amidine herbicidal agents” (Intellectual Property Department, BASF Aktiengesellschaft, priority 1998, published 2002).

Assays:
[1] = tested on: GALAP (Galium); assay: Postemergence herbicidal evaluation; assay type: in vivo, Galium aparine; details: postemergence
How it was run: (§1)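 Visual 0–9 rating versus control (stand, vigor, malformation, size, chlorosis, overall appearance), taken four to five weeks post-spray. Two-week-old seedlings received roughly 0.0156–0.500 kg/ha active in acetone/water (50/50) with 0.5% TWEEN 20 via nozzle at 40 psi.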

[2] = tested on: ABUTH (Velvetleaf); assay: Postemergence herbicidal evaluation; assay type: in vivo, Abutilon theophrasti; details: postemergence
How it was run: as §1

[3] = tested on: CYPIR (Rice Flatsedge); assay: Preemergence weed control under flooded paddy conditions; assay type: in vivo, Cyperus iria; details: rated 3-4 weeks after treatment
How it was run: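 Herbicidal effect is scored visually on a 0-9 scale against an untreated control, three to four weeks after compounds are pipetted into the flood water (1.5 to 3 cm deep) over seeds planted in silt loam at 0.5 cm depth. Rates: about 0.0313 to 0.500 kg/ha.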

[4] = tested on: ECHCG (Barnyardgrass); assay: Preemergence herbicidal evaluation; assay type: in vivo, Echinochloa crus-galli; details: rated 4-5 weeks after treatment
How it was run: (§2)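 Each species is sown separately in potting soil over roughly an inch of soil before any emergence. The soil surface then receives an aqueous acetone spray delivering about 0.0156 to 0.500 kg/ha of compound. After four to five weeks, injury is scored from 0 to 9 relative to a control.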

[5] = tested on: TRZAWR (Wheat, Winter, cv Riband); assay: Preemergence herbicidal evaluation; assay type: in vivo, Triticum aestivum; details: rated 4-5 weeks after treatment
How it was run: as §2

[6] = tested on: SAGPY (Arrowhead (Pygmaea)); assay: Preemergence weed control under flooded paddy conditions; assay type: in vivo, Sagittaria pygmaea; details: rated 3-4 weeks after treatment
How it was run: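 Visual injury scored 0-9 against control three to four weeks post-treatment, greenhouse-grown. Application: acetone/water (50/50) solutions dosed directly into flood water (1.5-3 cm over silt loam, planted top 0.5 cm), roughly 0.0313 to 0.500 kg/ha active ingredient.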

[7] = tested on: SETVI (Foxtail, Green); assay: Postemergence herbicidal evaluation; assay type: in vivo, Setaria viridis; details: postemergence
How it was run: as §1

[8] = tested on: AMBEL (Ragweed, Common); assay: Preemergence herbicidal evaluation; assay type: in vivo, Ambrosia artemisifolia; details: rated 4-5 weeks after treatment
How it was run: as §2

[9] = tested on: GLXMAW (Soybean, Williams); assay: Preemergence herbicidal evaluation; assay type: in vivo, Glycine max, (L.) Merr. cv Williams; details: rated 4-5 weeks after treatment
How it was run: as §2

[10] = tested on: GALAP (Galium); assay: Preemergence herbicidal evaluation; assay type: in vivo, Galium aparine; details: rated 4-5 weeks after treatment
How it was run: as §2

[11] = tested on: ABUTH (Velvetleaf); assay: Preemergence herbicidal evaluation; assay type: in vivo, Abutilon theophrasti; details: rated 4-5 weeks after treatment
How it was run: as §2

[12] = tested on: CYPSE (Flatsedge); assay: Postemergence weed control under flooded paddy conditions; assay type: in vivo, Cyperus serotinus; details: postemergence weeds, rated 3 to 4 weeks after treatment
How it was run: (§3)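 Injury ratings (0–9 scale covering stand, vigor, malformation, size, chlorosis and overall appearance versus control) were made three to four weeks after treatment. Test material, about 0.0313 to 0.500 kg/ha a.i. in 50/50 v/v aqueous/acetone, was added to flood water 1.5 to 3 cm deep over 3 to 5 cm weeds and 1.5 to 2.5 leaf rice.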

[13] = tested on: CYPIR (Rice Flatsedge); assay: as above; assay type: in vivo, Cyperus iria; details: postemergence weeds, rated 3 to 4 weeks after treatment
How it was run: as §3

[14] = tested on: CASOB (Sicklepod); assay: Postemergence herbicidal evaluation; assay type: in vivo, Cassia obtusifolia; details: postemergence
How it was run: as §1

CCOC(=O)CN1C(=O)C(Cc2ccccc2OC(C)C(=O)O)S/C1=N/c1cc(-n2c(=O)cc(C(F)(F)F)n(C)c2=O)c(F)cc1Cl (stereo not shown) [Compound 114, 5-[o-(1-Carboxyethoxy)benzyl]-2-{{2-chloro-5-[3,6-dihydro-3-methyl-2,6-dioxo-4-(trifluoromethyl)-1(2H)-pyrimidinyl]-4-fluorophenyl}imino}-4-oxo-3-thiazolidineacetic acid, 3-ethyl ester]
herbicidal rating GALAP ([1]; rate 0.0158 kg/ha): 1.0 | herbicidal rating GALAP ([1]; rate 0.0315 kg/ha): 1.0 | herbicidal rating GALAP ([1]; rate 0.0630 kg/ha): 3.0 | herbicidal rating ABUTH ([2]; rate 0.0158 kg/ha): 9.0 | herbicidal rating ABUTH ([2]; rate 0.0315 kg/ha): 9.0 | herbicidal rating ABUTH ([2]; rate 0.0630 kg/ha): 9.0 | CYPIR herbicidal effect rating ([3]; 0.0313 kg/ha): 4.5 | CYPIR herbicidal effect rating ([3]; 0.0625 kg/ha): 6.5 | CYPIR herbicidal effect rating ([3]; 0.1250 kg/ha): 8.5 | CYPIR herbicidal effect rating ([3]; 0.2500 kg/ha): 9.0 | Preemergence herbicidal rating ECHCG ([4]; rate 0.0156 kg/ha): 0.0 | Preemergence herbicidal rating ECHCG ([4]; rate 0.0313 kg/ha): 0.0 | Preemergence herbicidal rating ECHCG ([4]; rate 0.0625 kg/ha): 0.0 | Preemergence herbicidal rating ECHCG ([4]; rate 0.1250 kg/ha): 2.0 | Preemergence herbicidal rating ECHCG ([4]; rate 0.2500 kg/ha): 4.0 | Preemergence herbicidal rating TRZAWR ([5]; rate 0.0156 kg/ha): 0.0 | Preemergence herbicidal rating TRZAWR ([5]; rate 0.0313 kg/ha): 0.0 | Preemergence herbicidal rating TRZAWR ([5]; rate 0.0625 kg/ha): 0.0 | Preemergence herbicidal rating TRZAWR ([5]; rate 0.1250 kg/ha): 1.0 | Preemergence herbicidal rating TRZAWR ([5]; rate 0.2500 kg/ha): 3.0 | SAGPY herbicidal effect rating ([6]; 0.0313 kg/ha): 3.5 | SAGPY herbicidal effect rating ([6]; 0.0625 kg/ha): 3.5 | SAGPY herbicidal effect rating ([6]; 0.1250 kg/ha): 3.5 | SAGPY herbicidal effect rating ([6]; 0.2500 kg/ha): 4.5 | herbicidal rating SETVI ([7]; rate 0.0158 kg/ha): 4.0 | herbicidal rating SETVI ([7]; rate 0.0315 kg/ha): 3.0 | herbicidal rating SETVI ([7]; rate 0.0630 kg/ha): 9.0 | Preemergence herbicidal rating AMBEL ([8]; rate 0.0156 kg/ha): 0.0 | Preemergence herbicidal rating AMBEL ([8]; rate 0.0313 kg/ha): 0.0 | Preemergence herbicidal rating AMBEL ([8]; rate 0.0625 kg/ha): 0.0 | Preemergence herbicidal rating AMBEL ([8]; rate 0.1250 kg/ha): 5.0 | Preemergence herbicidal rating AMBEL ([8]; rate 0.2500 kg/ha): 7.0 | Preemergence herbicidal rating GLXMAW ([9]; rate 0.0156 kg/ha): 0.0 | Preemergence herbicidal rating GLXMAW ([9]; rate 0.0313 kg/ha): 1.0 | Preemergence herbicidal rating GLXMAW ([9]; rate 0.0625 kg/ha): 0.0 | Preemergence herbicidal rating GLXMAW ([9]; rate 0.1250 kg/ha): 2.0 | Preemergence herbicidal rating GLXMAW ([9]; rate 0.2500 kg/ha): 3.0 | Preemergence herbicidal rating GALAP ([10]; rate 0.0156 kg/ha): 0.0 | Preemergence herbicidal rating GALAP ([10]; rate 0.0313 kg/ha): 0.0 | Preemergence herbicidal rating GALAP ([10]; rate 0.0625 kg/ha): 3.0 | Preemergence herbicidal rating GALAP ([10]; rate 0.1250 kg/ha): 7.0 | Preemergence herbicidal rating GALAP ([10]; rate 0.2500 kg/ha): 9.0 | Preemergence herbicidal rating ABUTH ([11]; rate 0.0156 kg/ha): 0.0 | Preemergence herbicidal rating ABUTH ([11]; rate 0.0313 kg/ha): 1.0 | Preemergence herbicidal rating ABUTH ([11]; rate 0.0625 kg/ha): 6.0 | Preemergence herbicidal rating ABUTH ([11]; rate 0.1250 kg/ha): 9.0 | Preemergence herbicidal rating ABUTH ([11]; rate 0.2500 kg/ha): 9.0 | Herbicidal rating CYPSE ([12]; Rate 0.0313 kg/ha): 0.0 | Herbicidal rating CYPSE ([12]; Rate 0.0625 kg/ha): 0.0 | Herbicidal rating CYPSE ([12]; Rate 0.1250 kg/ha): 0.0 | Herbicidal rating CYPSE ([12]; Rate 0.2500 kg/ha): 0.0 | Herbicidal rating CYPIR ([13]; Rate 0.0313 kg/ha): 0.0 | Herbicidal rating CYPIR ([13]; Rate 0.0625 kg/ha): 0.0 | Herbicidal rating CYPIR ([13]; Rate 0.1250 kg/ha): 4.0 | Herbicidal rating CYPIR ([13]; Rate 0.2500 kg/ha): 7.0 | herbicidal rating CASOB ([14]; rate 0.0158 kg/ha): 1.0 | herbicidal rating CASOB ([14]; rate 0.0315 kg/ha): 1.0 | herbicidal rating CASOB ([14]; rate 0.0630 kg/ha): 1.0
